In PubChem BioAssay (NCI):
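48-hour exposure; five concentrations; linearly interpolated endpoints. Definition used: TGI = concentration required for complete inhibition of growth.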

What was measured:
Assay in all cases: NCI-60 cell line screen, 48 h
[1] = system: HCC-2998 colon
[2] = system: HCT-15 colon
[3] = system: NCI-H23 lung
[4] = system: NCI-H522 lung
[5] = system: RPMI-8226 leukemia
[6] = system: SF-268 CNS
[7] = system: SF-295 CNS
[8] = system: SK-MEL-2 melanoma
[9] = system: UO-31 renal
[10] = system: MDA-N
[11] = system: OVCAR-3 ovarian

Compound	TGI [1] [µM]	TGI [2] [µM]	TGI [3] [µM]	TGI [4] [µM]	TGI [5] [µM]	TGI [6] [µM]	TGI [7] [µM]	TGI [8] [µM]	TGI [9] [µM]	TGI [10] [µM]	TGI [11] [µM]
COC1(OC)N=C(N)C2(C#N)C(C)CC(=O)N(N(C)C)C12C#N (stereo not drawn)	> 100	> 100	> 100	> 100	> 100	> 100	> 100	> 100	> 100		
C#CC(O)/C=C/CCCCCCC#CC/C=C\CC#CCCCCCC/C=C/C(O)C#C (stereo not drawn)	3.39	6.94	3.53			10.8	26.9	6.8	0.915	7.52	7.99
NC(=O)N/N=C(\Cc1nc2ccc(C(=O)c3ccccc3)cc2[nH]c1=O)C(=O)Nc1ccc(Br)cc1	> 100	> 100	> 100	> 100	> 100	> 100	> 100	> 100	> 100		> 100
Nc1nc2c(ncn2CCOC(c2ccccc2)P(=O)(O)O)c(=O)[nH]1 (stereo not drawn)	> 100	> 100	> 100	> 100		> 100	> 100	> 100	> 100		> 100
CCc1cccc(C(C)C)c1NC(=O)C(=O)C(C(=O)C(=O)OC)c1nc2ccccc2[nH]c1=O (stereo not drawn)	> 100	> 100	> 100	> 100	> 100	> 100	> 100	> 100	> 100		
CCSc1nc2sc(C)c(C)c2c(=O)n1-c1ccc(C(=O)O)cc1	> 100	> 100	> 100	76.3	> 100	> 100	> 100	> 100	> 100		74.4
Cc1cc(Cc2cc(C)c(NC(=O)C(=O)C3C(=O)NC(=S)NC3=O)c(C(C)C)c2)cc(C(C)C)c1NC(=O)C(=O)C1C(=O)NC(=S)NC1=O	> 100	> 100	> 100	> 100	> 100	> 100	> 100		> 100		> 100
Cn1c(-c2csc(-c3ccc(Cl)cc3)n2)n[nH]c1=S	> 100	> 100	75.5	41		81.4	34.3		44.9	> 100	34.9
CN(C)C(=O)CC(C(=O)O)c1c[nH]c2ccccc12 (stereo not drawn)	> 100	> 100	> 100	> 100	> 100		> 100	> 100	41.6		> 100
Cc1nc2c(nc1C)-c1c(c3c(n1Cc1ccccc1)C(=O)CCC3)C(=O)C2=O	5.49	> 100	> 100	7.28			71.1	31.7	4.07	4.82	
Oc1ccc2c(c1)OCC(O)(c1ccccc1O)C2 (stereo not drawn)	> 100	> 100	> 100		> 100	> 100	> 100	> 100	> 100	> 100	> 100
CC1=C(C(=O)OCCO[N+](=O)[O-])C(c2ccccc2C(F)(F)F)C(C(=O)OC(C)C)=C(C)N1 (stereo not drawn)	> 100	60.6	85.4	44.4	> 100	47.9	26.9	29.7	33.6		29.2
NC(=O)c1n[nH]n(-c2ccccc2)c1=O	> 100	> 100	> 100	> 100	> 100	> 100	> 100	> 100	> 100		> 100
COC1=CC(=O)C(O)=C(C[C@@]2(C)[C@@H]3CCC[C@H](COC(=O)CCCCCNC(=O)OC(C)(C)C)[C@@]3(C)CC[C@@H]2C)C1=O				> 10	> 10	> 10	> 10	> 10	> 10	> 10	> 10
CCOC(=O)c1c(C)n(Cc2ccccc2)c2c1cc(O)c1[nH]c3c(c12)CCCC3		13.9	29.9	2.58	4.97	5.16	11.5	5.25	6.43	28.2	6.2
CCCCCCCCCCCCCCCCCCNc1ccn(C2OC(COP(=O)(O)O)C(O)C2O)c(=O)n1 (stereo not drawn)	> 100	> 100	> 100	> 100	> 100	> 100	> 100	> 100	> 100		> 100
N#CCCC(CC#N)N1CCN(CCO)CC1 (stereo not drawn)	> 100	> 100	> 100		> 100	> 100	> 100		> 100		
COC(=O)[C@H]1[C@H](C(=O)OC)[C@@H](C)c2c(ccc3c2[nH]c2ccccc23)[C@@H]1C		> 100	> 100	> 100	> 100	> 100	> 100	> 100	> 100	> 100	> 100
O=c1nc2n(cc1/C=C\Br)C1CC(O)C(CO2)O1 (stereo not drawn)	> 100	> 100	> 100		> 100	> 100	> 100		> 100	> 100	> 100
C/C(Cl)=N\OC(=O)Nc1ccccc1C(F)(F)F	> 100	> 100	> 100		45.2	> 100	> 100	> 100	> 100	31.7	29.2
CC(SC(=S)N1CCCCC1)C(=O)Nc1nnc(-c2ccc(Cl)cc2)o1 (stereo not drawn)	> 100	> 100	> 100		51.5	81.1		77.1	54		64.2
CCCCCCOc1ccc(NC2=C(Cl)C(=O)c3cccnc3C2=O)cc1	3.1	3.96	3.7		2.53	5.31	> 10	4.43	2.47	3.18	2.85
